Source: patent US6846843B2, “β-thioamino acids” (Gruenenthal GmbH, priority 2000, dated 2005)
pIC50: −log10 of the molar value. Counter-ions that a name gives are not always drawn. Like-named read-outs stand apart in the source and are kept apart here.

How the values were obtained:
gabapentin binding site = test: Gabapentin binding assay (displacement of gabapentin from its binding site); conditions: for pIC50: displacement of gabapentin, read-out: Affinity (IC50); for % Inhibition (Concn.): inhibition of gabapentin binding
Experimental: Gabapentin is used in the binding assay in order to determine the binding and affinities of the selected compounds. The affinity of the compounds according to the invention is measured via the displacement of gabapentin from its binding site.

[1] = tested on: formalin-induced nociception; test: Formalin test on mice (second phase); assay type: in vivo; conditions: mouse, second phase, read-out: Mouse Formalin Test ED50
Experimental: The investigations to determine the antinociceptive action of the compounds according to the invention were carried out by the formalin test on male albino mice (NMRI, 25-35 g, Iffa Credo, Belgium).
In the formalin test the first (early) phase (0-15 minutes after the formalin injection) and the second (late) phase (15-60 minutes after the formalin injection) differ (D. Dubuisson et al., Pain, Vol. 4, pp. 161-174 (1977)). The early phase, being a direct reaction to the formalin injection, constitutes a model for acute pain, whereas the late phase is regarded as a model for persistent (chronic or inflammatory) pain (T. J. Coderre et al., Pain, Vol. 52, pp. 259-285 (1993)).
The compounds according to the invention were investigated in the second phase of the formalin test in order to obtain information on the effects of substances in chronic/inflammatory pain.
By means of a single subcutaneous formalin injection (20 μl, 1% aqueous solution) into the dorsal side of the right-hand rear paw, a nociceptive reaction was induced in unconstrained experimental animals, manifested in a noticeable licking and biting of the affected paw. The nociceptive behavior during the investigation period in the second (late) phase of the formalin test was continuously monitored by observing the animals. The pain reaction was quantified by totalling the time in seconds during which the animals continued to lick and bite the affected paw during the investigation period. After injecting substances that have an antinociceptive effect in the formalin test, the aforedescribed behavior pattern of the animals is reduced or possibly even eliminated. Corresponding to the substance tests, in which the animals had been injected with the test substance before formalin, the control animals were injected with a vehicle, i.e. solvent (e.g. 0.9% NaCl solution) before the formalin injection. The behavior of the animals after administration of the substance (n=10 per substance dose) was compared with a control group (n=10).
Based on the quantification of the pain reaction, the effect of the substance in the formalin test was determined as the change in the control in percentage terms. The ED50 calculations were carried out by means of regression analysis. The application time before the formalin injection (intraperitoneally: 15 minutes, intravenously: 5 minutes) was chosen depending on the type of application of the compounds according to the invention.

[2] = tested on: phenylquinone-induced writhing reactions; test: Phenylquinone-induced writhing test in mice; assay type: in vivo; conditions: iv; mouse, i.v., 10 minutes before phenylquinone; read-out: Writhing Mouse i.v. ED50
Experimental: The antinociceptive effectiveness of the compounds according to the invention was investigated in mice using the phenylquinone-induced writhing test as modified by I. C. Hendershot and J. Forsaith, J. Pharmacol. Exp. Ther. 125, 237-240 (1959)). Male NMRI mice weighing 25-30 g were used for this purpose. Groups of 10 animals per substance dose were given intraperitoneally 10 minutes after intravenous administration of a compound according to the invention, 0.3 ml/mouse of a 0.02% aqueous solution of phenylquinone (phenylbenzoquinone, from Sigma, Deisenhofen; solution prepared by addition of 5% of ethanol and storage in a water bath at 45° C.). The animals were placed individually in observation cages. The number of pain-induced stretching movements (so-called writhing reactions=contortion of the body accompanied by stretching of the rear extremities) 5-20 minutes after administration of the phenylquinone were counted using a push-button counter. Animals that had received physiological saline solution i.v. and phenylquinone […]. served as controls.
All substances were tested in the standard dose of 10 mg/kg.

| SMILES | pIC50 (gabapentin binding site) | % Inhibition (Concn.) (gabapentin binding site) | further results |
| --- | --- | --- | --- |
| CCCCCC(C)(SCc1ccccc1)C(N)C(=O)O (racemic) [Compound 16, rac-threo-2-amino-3-benzylsulfanyl-3-methyl-octanoic acid hydrochloride] | 5.74 | 93% | – |
| CCCC(S)(CC)C(N)C(=O)O.Cl (racemic) [Compound 9, rac-amino-3-ethyl-3-mercaptohexanoic acid hydrochloride] | 6.47 | 97.5% | – |
| CCCCCCCC(C)(S)C(N)C(=O)O (racemic) [Compound 11, rac-erythro-2-amino-3-mercapto-3-methyldecanoic acid hydrochloride] | – | – | pIC50 (gabapentin binding site; hydrochloride): 6.92 |
| CCCC(C)(S)C(N)C(=O)O.Cl (racemic) [Compound 2, rac-2-amino-3-mercapto-3-methylhexanoic acid hydrochloride] | 6.78 | – | ED50 ([1]; iv, i.v.): 158 mg/kg |
| CCCCCCC(C)(S)C(N)C(=O)O (racemic) [Compound 12, rac-threo-2-amino-3-mercapto-3-methylnonanoic acid hydrochloride] | – | – | pIC50 (gabapentin binding site; hydrochloride): 7.15; ED50 ([1]; ip, i.p.): 78 mg/kg |
| CC1CCCCC1(S)C(N)C(=O)O (racemic) [Compound 33, rac-amino-(1-mercapto-2-methylcyclohexyl)ethanoic acid hydrochloride] | 6.28 | – | – |
| CCCC(S)(CCC)C(N)C(=O)O (racemic) [Compound 17, rac-2-amino-3-mercapto-3-propyl-3-hexanoic acid hydrochloride] | 5.63 | – | – |
| CC(S)(c1cccs1)C(N)C(=O)O.Cl (racemic) [Compound 29, rac-2-amino-3-mercapto-3-thiophen-2-yl-butanoic acid hydrochloride] | – | 30% (10^−5 μm) | – |
| CC1CCC(S)(C(N)C(=O)O)CC1 (racemic) [Compound 34, rac-amino-(1-mercapto-4-methylcyclohexyl)ethanoic acid hydrochloride] | 6.00 | – | – |
| CCCCCC(C)(SCC)C(N)C(=O)O.Cl (racemic) [Compound 15, rac-2-amino-3-ethylsulfanyl-3-methyloctanoic acid hydrochloride] | – | 92% (10^−5 μm) | – |
| CC(C)C(C)(S)C(N)C(=O)O.Cl (racemic) [Compound 36, rac-2-amino-3-mercapto-3,4-dimethylpentanoic acid hydrochloride] | – | 88% (10^−5 μm) | – |
| CC1CCCC(S)(C(N)C(=O)O)C1 (racemic) [Compound 32, rac-amino-(1-mercapto-3-methylcyclohexyl)ethanoic acid hydrochloride] | 6.65 | – | – |
| CCCCCCCC(C)(SCC)C(N)C(=O)O.Cl (racemic) [Compound 24, rac-2-amino-3-ethylsulfanyl-3-methyldecanoic acid hydrochloride] | – | 90% (10^−5 μm) | – |
| NC(C(=O)O)C1(S)CCCCC1 (racemic) [Compound 31, rac-amino-(1-mercaptocyclohexyl)ethanoic acid hydrochloride] | 6.73 | – | – |
| CCCCCCC(C)(SCC)C(N)C(=O)O (racemic) [Compound 19, rac-2-amino-3-ethylsulfanyl-3-methylnonanoic acid hydrochloride] | 6.57 | – | – |
| Cl.NC(C(=O)O)C1(S)CCSCC1 (racemic) [Compound 35, rac-amino-(4-mercaptotetrahydrothiopyran-4-yl)ethanoic acid hydrochloride] | – | 84% (10^−5 μm) | – |
| Cl.NC(C(=O)O)C(S)(c1ccc(F)cc1)C1CC1 (racemic) [Compound 25, rac-2-amino-3-cyclopropyl-3-(4-fluorophenyl)-3-mercapto-propionic acid hydrochloride] | – | 40% (10^−5 μm) | – |
| CCCCCC(C)(S)C(N)C(=O)O (racemic) [Compound 14, rac-threo-2-amino-3-mercapto-3-methyloctanoic acid hydrochloride] | – | – | pIC50 (gabapentin binding site; hydrochloride): 7.00 |

| SMILES | pIC50 (gabapentin binding site) | % Inhibition (Concn.) (gabapentin binding site) | further results |
| --- | --- | --- | --- |
| CCC(C)C(C)(S)C(N)C(=O)O (racemic) [Compound 37, rac-2-amino-3-mercapto-3,4-dimethylhexanoic acid hydrochloride] | 6.71 | – | – |
| CCCCC(S)(CC)C(N)C(=O)O (racemic) [Compound 30, rac-2-amino-3-ethyl-3-mercaptoheptanoic acid hydrochloride] | 6.50 | – | – |
| CCCCC(C)(S)C(N)C(=O)O.Cl (racemic) [Compound 3, rac-2-amino-3-mercapto-3-methylheptanoic acid hydrochloride] | 6.55 | 99.7% | – |
| CCC(S)(CC)C(N)C(=O)O (racemic) [Compound 7, rac-2-amino-3-ethyl-3-mercaptopentanoic acid hydrochloride] | 6.59 | – | – |
| CCC(C)(S)C(N)C(=O)O (racemic) [Compound 1, rac-2-amino-3-mercapto-3-methylpentanoic acid hydrochloride] | 6.57 | – | – |
| CCCCCCC(C)(SCc1ccccc1)C(N)C(=O)O (racemic) [Compound 22, rac-2-amino-3-benzylsulfanyl-3-methyl-nonanoic acid hydrochloride] | 6.47 | – | – |
| Cl.NC(C(=O)O)C1(S)CCCCCC1 (racemic) [Compound 18, rac-amino-(1-mercaptocycloheptyl)acetic acid hydrochloride] | – | 15% (10^−5 μm) | – |
| CC(S)(C1CCC1)C(N)C(=O)O (racemic) [Compound 27, rac-2-amino-3-cyclobutyl-3-mercapto-butanoic acid hydrochloride] | 6.23 | – | – |
| CCCCCCCC(C)(SCc1ccccc1)C(N)C(=O)O.Cl (racemic) [Compound 23, rac-2-amino-3-benzylsulfanyl-3-methyldecanoic acid hydrochloride] | – | 91% (10^−5 μm) | – |
| CC(S)(C1CCCCC1)C(N)C(=O)O (racemic) [Compound 28, rac-2-amino-3-cyclohexyl-3-mercaptobutanoic acid hydrochloride] | 5.88 | – | – |
| CCCCCCC(C)(S)C(N)C(=O)O (racemic) [Compound 13, rac-erythro-2-amino-3-mercapto-3-methylnonanoic acid hydrochloride] | – | – | pIC50 (gabapentin binding site; hydrochloride): 7.52 |
| CCCCCCC(C)(SCCC)C(N)C(=O)O (racemic) [Compound 20, rac-2-amino-3-methyl-3-propylsulfanylnonanoic acid hydrochloride] | 5.52 | – | – |
| CCCCCCSC(C)(CCCCCC)C(N)C(=O)O (racemic) [Compound 21, rac-2-amino-3-hexylsulfanyl-3-methylnonanoic acid hydrochloride] | 4.91 | – | – |
| CCCCCCC(C)(S)C(N)C(=O)O.Cl (racemic) [Compound 5, rac-2-amino-3-mercapto-3-methylnonanoic acid hydrochloride] | – | – | pIC50 (gabapentin binding site; hydrochloride): 7.15; ED50 ([1]; ip, i.p.): 54 mg/kg |
| CCCCCCCC(C)(S)C(N)C(=O)O.Cl (racemic) [Compound 10, rac-threo-2-amino-3-mercapto-3-methyldecanoic acid hydrochloride] | – | – | pIC50 (gabapentin binding site; hydrochloride): 6.82; ED50 ([1]; ip, i.p.): 105 mg/kg |
| CC(S)(C1CC1)C(N)C(=O)O (racemic) [Compound 26, rac-2-amino-3-cyclopropyl-3-mercaptobutanoic acid hydrochloride] | 6.15 | – | – |
| Cl.NC(C(=O)O)C1(S)CCCC1 (racemic) [Compound 8, rac-amino-(1-mercaptocyclopentyl)acetic acid hydrochloride] | 6.82 | – | ED50 ([1]; iv, i.v.): 79 mg/kg; ED50 [2]: 70 mg/kg |
